# From publication PMC4915154, “Development of background-free tame fluorescent probes for intracellular live cell imaging” (Nature Communications, 2016)
# Legend:
# [1] = system: U-2 OS and CHO cell lines; assay: Cellular retention and efflux characteristics test (before/after washing imaging, retaining ratio RR); type: cell-based, human (U-2 OS), Chinese hamster (CHO); conditions: 30 min
# Source text: To expedite an efficient strategy for ‘tame' probe development, we set up a system to predict cellular properties of fluorescent probes via phenotypic high-throughput screening (HTS), cheminformatics and statistical analysis (Fig. 1a). As the first step, we conducted phenotypic HTS to investigate cell permeability and nonspecific binding properties of the probes in a training set. We tested about 2,085 probes consisted of a wide range photophysical properties from numerous fluorophore cores such as BODIPY[12][13][14][15], xanthone, rosamine, cyanine[19][20] and ACEMAN[21]. Their cellular influx and efflux profiles were examined in two types of mammalian cells, U-2 OS and CHO. These cell lines were chosen due to their flexibility in genetic manipulation, adaptability to various culture conditions and versatility in wide biomedical research such as gene expression, toxicity screening, recombinant protein and live cell imaging. Each of the probes was added into live cells and cell image was taken after 30 min by ImageXpress Micro cellular imaging system (Molecular Device). The cells were then washed with fresh growth media, and after another 10 min, a second image was taken to check the completeness of probe washing out of the cell. The first and second imaging facilitated influx (before washing, BW) and efflux (after washing, AW) measurements, respectively (Supplementary Fig. 1).
# To measure the influx and efflux of the probes, an automated quantitative intensity-based image analysis was then performed by Multi-Wavelength Cell Scoring analysis using MetaXpress High Content Image software. Retaining ratio (RR, per cent ratio of the average intensity of AW image over BW image) was computed to classify probes into the three phenotypic groups. For each cell in the image, the nuclei and cell region were segmented to provide approximate cellular boundaries. Fluorescence intensity was then quantified on a cell-by-cell basis by the following steps: (i) selecting the image of interest, (2) specifying the width of the stained cell area, (3) adjusting the intensity above local background for detection specificity, and (4) calculating fluorescence intensity with specified reporting parameters. Average fluorescence intensity for each BW and AW images was calculated for each probes and cell lines, and was then used as input in RR calculation (Supplementary Figs 2 and 3).
# U-2 OS, a human osteosarcoma cell line, and CHO, a Chinese hamster ovary cell line, (from ATCC) were cultured in Dulbecco's modified eagle's medium (DMEM) (Invitrogen, CA, USA) supplemented with fetal bovine serum (FBS) (10%) and penicillin–streptomycin (1%). Materials used in the cell culture were purchased from Invitrogen. U-2 OS and CHO cells were seeded onto 96-well plate in growth media at 37 °C in the presence of 5% CO2 and were then allowed to attach and grow to 70–80% confluence. Library probes were dissolved in dimethylsulfoxide (DMSO) to make the 1 mM solution, and stored in −20 °C. Before HTS experiment, the growth media was aspirated and replaced by 200 μl fresh growth media containing probes in final concentration of 1 μM and nuclei dye Hoechst 33342. Plates were incubated for 30 min at 37 °C then were imaged using ImageXpress Micro cellular imaging system (Molecular Device) with × 10 objective lens. Immediately after image acquisition, the cells were washed with fresh growth media, and transferred back to a 37 °C cell incubator for further incubation. After 10 min, cells were again imaged (AW image). The first imaging step allowed influx measurement of BW image , while the second imaging step allowed out-flux measurement of AW image. Images of two regions per well were acquired with DAPI, FITC, TRITC or Texas Red filter sets according to probes' excitation and emission wavelength. Experiment was performed in duplicate. Cellular retention and efflux characteristics test for other synthesized probes were also done by using the same protocol. […]
# [2] = Spectroscopic properties (absorbance, emission, extinction coefficient, quantum yield); type: physicochemical; conditions: 10 μM in DMSO
# Protocol: Supplementary Table 9. Spectrocopic properties and purity table for CO-1 and CO-1H.
# Calculated mass, experimental mass, absorbance maximum (λabs), fluorescent emission maximum (λem), extinction coefficient (ε), quantum yield (Φ), and purity. mass m/z λabs λem ε Purity […]
# Absorbance and fluorescence emission data were recorded by a Synergy 4, Biotek Inc. fluorescent plate reader at 10 μM concentration in DMSO in 96-well plates. HRMS a: found mass (M-H), b: tetramethyl BODIPY was used as standard, c: purity data was calculated on the basis of the integration in HPLC trace at 254 nm.
# [3] = system: human histone H2B (H2B-mKate2 fusion with Azi at site 16) in U-2 OS cells; assay: Histone H2B imaging in live cells (Azi incorporated in H2B-mKate2); type: cell-based; conditions: live U-2 OS cells, 10 μM, 37 °C
# Source text: The red fluorescent protein mKate2 was fused to the C terminus of human histone H2B as a red fluorescent marker. Using the in vivo unnatural amino acid (UAA) technology,[27][28] an azide-bearing UAA, p-azido-L-phenylalanine (Azi), was site-specifically incorporated at site 16 of mKate2 of the fusion protein H2B-mKate2, which was expressed in live U-2 OS cells. The cells were labelled with CO-1, washed to remove unreacted CO-1, and then imaged with laser scanning confocal microscopy.
# U-2 OS cells were transfected with 1 μg DNA of each plasmid using Lipofectamine2000 in 35 mm glass bottom dishes according to the manufacturer protocol. Azi (purchased from Bachem) was added 1 h before transfection at a final concentration of 0.5 mM. Plasmid pIre-Azi3 (expressing the orthogonal amber suppressor transfer RNA (tRNA) and the E2AziRS specific for Azi) was co-transfected with plasmid pmH2B-6-mKate2-16tag in a 1:1 molar ratio. After 24 h, cells were washed three times with culture medium (DMEM with 10% FBS) (15 min each time). Growth media containing 10 μM CO-1 was then added to the dishes, and cells were incubated at 37 °C for 90 min followed by 4 times washing with growth media (30 min each time). Laser scanning confocal microscopy (Zeiss LSM 700) was used for imaging. The same conditions and settings were used for imaging control and experimental cells.
# U-2 OS cells were transfected with plasmid pmH2B-6-mKate2. After 24 hours, cells were
# labeled with 10 μM CO-1 for 90 minutes at 37 °C. Cells were washed to remove the unreacted
# CO-1 and then imaged for mKate2 (red) and CO-1 (green) signals. Scale bar, 5 μm.
# (1 picture or pasted object on this page, not shown here)
smiles,measurement,setting,value
Cc1cc(C)n2c1C(CCNC(=O)CCC(=O)OCC1C3CCC#CCCC31)=C1C=CC=[N+]1[B-]2(F)F (stereo not drawn) [CO-1],Cellular retention after washing (probe signal),"[1]; CHO and U-2 OS cells, 1 uM probe",leave the cells after washing
same,Experimentally observed group,"[1]; U-2 OS and CHO cell lines, probe 1 μM, imaged before and 10 min after washing","L-group (Probes (FI(BW) >200) with rapid efflux were observed to have a RR of <5%, and thus were classified into L-group)"
same,ε,[2],66668 M⁻¹ cm⁻¹
same,λabs,[2],490 nm
same,λem,[2],510 nm
same,QY (Φ),[2]; tetramethyl BODIPY as standard,0.66
same,Labelling of Azi-bearing histone H2B-mKate2,[3]; 90 min,specific labelling of histone H2B
same,Nuclear membrane permeability,[3]; 90 min,pass through nuclear membrane
same,Labelling of wild type H2B-mKate2 (control without Azi),[3]; 90 minutes,did not label wild type H2B-mKate2
